How the values were obtained:
Assay in all cases: relative viability (nuclei count vs DMSO), 5 days (fraction); higher = more cells survive
201T = test system: 201T
In short: (§1)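 Lung cancer cell lines were pin-tool dosed in 1536-well plates on the day after seeding, with either a lone drug or a fixed anchor-drug dose plus five library-drug doses (not always all listed) in √10 steps. Nuclei were counted on 4× images after 5 days. Relative viability is the ratio of treated-well to vehicle-well nuclei counts, with each value a median of duplicate plates.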

BEN = test system: BEN
In short: as §1

COR-L 105 = test system: COR-L 105
In short: as §1

EKVX = test system: EKVX
In short: as §1

EPLC-272H = test system: EPLC-272H
In short: as §1

H3255 = test system: H3255
In short: as §1

HCC-44 = test system: HCC-44
In short: as §1

HCC-827 = test system: HCC-827
In short: as §1

HOP-62 = test system: HOP-62
In short: as §1

LCLC-97TM1 = test system: LCLC-97TM1
In short: as §1

LOU-NH91 = test system: LOU-NH91
In short: as §1

LU99A = test system: LU99A
In short: as §1

NCI-H1395 = test system: NCI-H1395
In short: as §1

NCI-H1437 = test system: NCI-H1437
In short: as §1

NCI-H1666 = test system: NCI-H1666
In short: as §1

NCI-H1975 = test system: NCI-H1975
In short: as §1

NCI-H2085 = test system: NCI-H2085
In short: as §1

NCI-H2087 = test system: NCI-H2087
In short: as §1

NCI-H2342 = test system: NCI-H2342
In short: as §1

NCI-H358 = test system: NCI-H358
In short: as §1

NCI-H647 = test system: NCI-H647
In short: as §1

PC-3 [JPC-3] = test system: PC-3 [JPC-3]
In short: as §1

SW 1573 = test system: SW 1573
In short: as §1

## O=C(O)c1ccc(-c2c[nH]c3ncc(-c4ccccc4)cc23)cc1C1CCCC1 + CC(=O)Nc1cccc(-n2c(=O)n(C3CC3)c(=O)c3c(Nc4ccc(I)cc4F)n(C)c(=O)c(C)c32)c1 [Trametinib] (partner 0.02 µM)
201T; first compound 0.04 µM
  relative viability: 0.703
201T; first compound 0.1265 µM
  relative viability: 0.673
201T; first compound 0.4 µM
  relative viability: 0.741
201T; first compound 1.265 µM
  relative viability: 0.738
BEN; first compound 0.04 µM
  relative viability: 1.19
BEN; first compound 0.1265 µM
  relative viability: 1.05
BEN; first compound 0.4 µM
  relative viability: 1.08
BEN; first compound 1.265 µM
  relative viability: 0.957
COR-L 105; first compound 0.04 µM
  relative viability: 0.402
COR-L 105; first compound 0.1265 µM
  relative viability: 0.456
COR-L 105; first compound 0.4 µM
  relative viability: 0.46
COR-L 105; first compound 1.265 µM
  relative viability: 0.506
EKVX; first compound 0.04 µM
  relative viability: 0.322
EKVX; first compound 0.1265 µM
  relative viability: 0.408
EKVX; first compound 0.4 µM
  relative viability: 0.33
EKVX; first compound 1.265 µM
  relative viability: 0.316
EPLC-272H; first compound 0.04 µM
  relative viability: 0.307
EPLC-272H; first compound 0.1265 µM
  relative viability: 0.27
EPLC-272H; first compound 0.4 µM
  relative viability: 0.283
EPLC-272H; first compound 1.265 µM
  relative viability: 0.276
H3255; first compound 0.04 µM
  relative viability: 0.587
H3255; first compound 0.1265 µM
  relative viability: 0.689
H3255; first compound 0.4 µM
  relative viability: 0.584
H3255; first compound 1.265 µM
  relative viability: 0.625
HCC-44; first compound 0.04 µM
  relative viability: 1
HCC-44; first compound 0.1265 µM
  relative viability: 1.02
HCC-44; first compound 0.4 µM
  relative viability: 0.908
HCC-44; first compound 1.265 µM
  relative viability: 1.01
HCC-827; first compound 0.04 µM
  relative viability: 0.574
HCC-827; first compound 0.1265 µM
  relative viability: 0.575
HCC-827; first compound 0.4 µM
  relative viability: 0.487
HCC-827; first compound 1.265 µM
  relative viability: 0.362
HOP-62; first compound 0.04 µM
  relative viability: 0.37
HOP-62; first compound 0.1265 µM
  relative viability: 0.407
HOP-62; first compound 0.4 µM
  relative viability: 0.412
HOP-62; first compound 1.265 µM
  relative viability: 0.376
LCLC-97TM1; first compound 0.04 µM
  relative viability: 0.202
LCLC-97TM1; first compound 0.1265 µM
  relative viability: 0.204
LCLC-97TM1; first compound 0.4 µM
  relative viability: 0.173
LCLC-97TM1; first compound 1.265 µM
  relative viability: 0.207
LOU-NH91; first compound 0.04 µM
  relative viability: 0.774
LOU-NH91; first compound 0.1265 µM
  relative viability: 0.848
LOU-NH91; first compound 0.4 µM
  relative viability: 0.773
LOU-NH91; first compound 1.265 µM
  relative viability: 0.681
LU99A; first compound 0.04 µM
  relative viability: 0.575
LU99A; first compound 0.1265 µM
  relative viability: 0.516
LU99A; first compound 0.4 µM
  relative viability: 0.52
LU99A; first compound 1.265 µM
  relative viability: 0.51
NCI-H1395; first compound 0.04 µM
  relative viability: 0.987
NCI-H1395; first compound 0.1265 µM
  relative viability: 1.09
NCI-H1395; first compound 0.4 µM
  relative viability: 1.02
NCI-H1395; first compound 1.265 µM
  relative viability: 0.957
NCI-H1437; first compound 0.04 µM
  relative viability: 0.476
NCI-H1437; first compound 0.1265 µM
  relative viability: 0.609
NCI-H1437; first compound 0.4 µM
  relative viability: 0.541
NCI-H1437; first compound 1.265 µM
  relative viability: 0.202
NCI-H1666; first compound 0.04 µM
  relative viability: 0.916
NCI-H1666; first compound 0.1265 µM
  relative viability: 0.809
NCI-H1666; first compound 0.4 µM
  relative viability: 0.84
NCI-H1666; first compound 1.265 µM
  relative viability: 0.598
NCI-H1975; first compound 0.04 µM
  relative viability: 0.319
NCI-H1975; first compound 0.1265 µM
  relative viability: 0.435
NCI-H1975; first compound 0.4 µM
  relative viability: 0.395
NCI-H1975; first compound 1.265 µM
  relative viability: 0.32
NCI-H2085; first compound 0.04 µM
  relative viability: 0.508
NCI-H2085; first compound 0.1265 µM
  relative viability: 0.488
NCI-H2085; first compound 0.4 µM
  relative viability: 0.499
NCI-H2085; first compound 1.265 µM
  relative viability: 0.384
NCI-H2087; first compound 0.04 µM
  relative viability: 0.204
NCI-H2087; first compound 0.1265 µM
  relative viability: 0.209
NCI-H2087; first compound 0.4 µM
  relative viability: 0.179
NCI-H2087; first compound 1.265 µM
  relative viability: 0.205
NCI-H2342; first compound 0.04 µM
  relative viability: 0.768
NCI-H2342; first compound 0.1265 µM
  relative viability: 0.839
NCI-H2342; first compound 0.4 µM
  relative viability: 0.906
NCI-H2342; first compound 1.265 µM
  relative viability: 0.711
NCI-H358; first compound 0.04 µM
  relative viability: 0.146
NCI-H358; first compound 0.1265 µM
  relative viability: 0.129
NCI-H358; first compound 0.4 µM
  relative viability: 0.138
NCI-H358; first compound 1.265 µM
  relative viability: 0.0857
NCI-H647; first compound 0.04 µM
  relative viability: 0.432
NCI-H647; first compound 0.1265 µM
  relative viability: 0.477
NCI-H647; first compound 0.4 µM
  relative viability: 0.478
NCI-H647; first compound 1.265 µM
  relative viability: 0.389
PC-3 [JPC-3]; first compound 0.04 µM
  relative viability: 0.656
PC-3 [JPC-3]; first compound 0.1265 µM
  relative viability: 0.756
PC-3 [JPC-3]; first compound 0.4 µM
  relative viability: 0.752
PC-3 [JPC-3]; first compound 1.265 µM
  relative viability: 0.647
SW 1573; first compound 0.04 µM
  relative viability: 0.476
SW 1573; first compound 0.1265 µM
  relative viability: 0.584
SW 1573; first compound 0.4 µM
  relative viability: 0.439
SW 1573; first compound 1.265 µM
  relative viability: 0.365
